# Measured values as given in patent US20230390275A1, “APPLICATION OF ESTER GROUP-[…] PR[…] AND METABOLITE THEREOF IN PREPARATION OF DRUG FOR TREATING HEART FAILURE” (CHANGCHUN GENESCIENCE PHARMACEUTICAL CO., LTD., priority 2020, published 2023).
# Experiments:
# Assay type in all cases: in vivo, Sprague Dawley rats
# [1] = test system: heart failure rats; assay: Body weight and organ weight index (heart weight index, brain/heart weight ratio) in myocardial infarction heart failure rats; parameters: Brain weight/heart weight: unit not given here; details: 3 mpk p.o. qd for 4 weeks; endpoint; Mean ± SEM, N = 7
# Description: • 1. Vehicle (0.5% CMC Na): formulation: 5 g of CMC Na was weighed out, and the volume was made up to 1000 mL with ddwater; the vehicle was obtained by stirring with a stirrer until the CMC Na was dissolved. • 2. EG017: formulation: a proper amount of the sample was weighed out, and a formula amount of the 0.5% CMC Na was added to prepare 1 mg/kg, 3 mg/kg and 10 mg/kg compound; the formulations were obtained by stirring with a stirrer until the sample was dissolved. Administration regimen: one week after animal modeling, sham/myocardial infarction rats were grouped and administered orally once daily for 28 consecutive days in a volume of 10 mL/kg. […]
# One week after the modeling of animals, the isoflurane was used for anesthetizing the rats, the Vevo small animal ultrasonic imaging system was used for checking the function of the left ventricle of the model rats, and successful modeling was determined if the LVFE % was reduced by 30%. […]
# [2] = test system: heart failure rats; assay: Echocardiography of left ventricular function in myocardial infarction heart failure rats; details: 3 mpk p.o. qd for 4 weeks; one day after last dose; Mean ± SEM, N = 7
# Description: (§1) • 1. Vehicle (0.5% CMC Na): formulation: 5 g of CMC Na was weighed out, and the volume was made up to 1000 mL with ddwater; the vehicle was obtained by stirring with a stirrer until the CMC Na was dissolved. • 2. EG017: formulation: a proper amount of the sample was weighed out, and a formula amount of the 0.5% CMC Na was added to prepare 1 mg/kg, 3 mg/kg and 10 mg/kg compound; the formulations were obtained by stirring with a stirrer until the sample was dissolved. Administration regimen: one week after animal modeling, sham/myocardial infarction rats were grouped and administered orally once daily for 28 consecutive days in a volume of 10 mL/kg.
# (§2) After adaptive feeding, on the day of the experiment, the animals were anesthetized by intraperitoneal injection of pentobarbital sodium injection (60 mpk), atropine (0.5 mpk) was injected intraperitoneally to eliminate phlegm, and then the trachea was connected with a breathing machine to assist breathing; the chest was cut open from the place between the third rib and the fourth rib and then expanded with a chest expander; the pericardium was torn open, the left anterior descending coronary artery was ligated with 5-0 silk thread, the ribs and skin were sutured, and then the animals were placed on a heat preservation blanket for recovery after operation. The animals in the Sham group were also subjected to the same operation, except that the ligation with silk thread was not performed. After the operation was finished, all the animals are subjected to intramuscular injection of meloxicam (1 mpk) and gentamicin hydrochloride injection (8 mpk) for analgesia and anti-infection. One day before administration, the rats were subjected to cardiac ultrasonography after anesthesia by isoflurane inhalation (1.5%-5% v/v in oxygen), and the ligation was successful if there was no significant contraction of the anterior wall of the left ventricle, the left ventricular cavity was enlarged, and there was a 30% decrease in left ventricular ejection fraction compared to the normal control group. Successfully modeled rats were selected for subsequent experiments (note: ensure that there were 7 animals in each group after modeling, and 7 animals in the sham group). The rats in each group were subjected to intragastric administration of therapeutic agent once daily for four consecutive weeks. During the experiment, the living state of the animals was observed, and the abnormal conditions were recorded; endpoint index detection and sample collection were performed one day after the last dose.
# (§3) One week after the modeling of animals, the isoflurane was used for anesthetizing the rats, the Vevo small animal ultrasonic imaging system was used for checking the function of the left ventricle of the model rats, and successful modeling was determined if the LVFE % was reduced by 30%.
# (§4) Except for the Sham group, the animals were divided into 9 groups according to LVEF % and body weight, 7 rats in each group. […]
# [3] = test system: heart failure rats; assay: Hemodynamics (heart rate, arterial blood pressure, left ventricular pressure) in myocardial infarction heart failure rats; parameters: Dp/dt max / Dp/dt min: unit not given here; details: 3 mpk p.o. qd for 4 weeks; one day after last dose; Mean ± SEM, N = 7
# Description: as §1, §2, §3, §4
smiles,measurement,setting,value
"C[C@@](COc1ccc(C#N)cc1)(OC(=O)c1cccnc1)C(=O)Nc1ccc(C#N)c(C(F)(F)F)c1 [EG017, (S)-1-((4-cyano-3-(trifluoromethyl)phenyl)amino)-3-(4-cyanophenoxy)-2-methyl-1-oxopropan-2-yl nicotinate]",Brain weight/heart weight,[1],78.3 ± 4.31
same,Heart weight index,[1],0.376 ± 0.025 g/100 g body weight
same,CO,[2],85.6 ± 9.55 mL/min
same,EDV,[2],477 ± 48.2 µL
same,ESV,[2],238 ± 52.0 µL
same,FS,[2],29.0 ± 3.51 %
same,LV mass,[2],1497 ± 145^ mg
same,LVEF,[2],52.7 ± 5.61 %
same,LVPWTd,[2],2.17 ± 0.17 mm
same,LVPWTs,[2],2.66 ± 0.22 mm
same,SV,[2],238 ± 21.1 µL
same,DBP,[3],76.1 ± 3.02 mmHg
same,Dp/dt max,[3],6630 ± 432
same,Dp/dt min,[3],−6603 ± 707
same,HR,[3],352 ± 23.3 BPM
same,LVSP,[3],98.5 ± 3.89& mmHg
same,MBP,[3],88.3 ± 3.39 mmHg
same,SBP,[3],98.7 ± 3.62 mmHg
